Active and inactive are the calls of the source.
Experiments:
[1] = test system: Escherichia coli; experiment: microbe, parasite or virus in culture
[2] = biological target: Troponin, cardiac muscle (Homo sapiens, UniProt P19429+P45379+P63316); experiment: Fluorescence-based biochemical high throughput dose response assay for activators of the calcium sensitivity of cardiac Regulated Thin Filaments (RTF). [Related pubchem assays (depositor defined):AID493008, AID493018, AID504382, AID504383]; type: protein-complex assay
[3] = biological target: T1, Low molecular weight phosphotyrosine protein phosphatase (Homo sapiens, UniProt P24666); type: functional; details: read-out: IC50_Mean;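 also: Dose-response confirmation assay measuring inhibition of LMPTP enzyme activity by fluorescence intensity read-out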
T1 sequence (P24666 whole entry): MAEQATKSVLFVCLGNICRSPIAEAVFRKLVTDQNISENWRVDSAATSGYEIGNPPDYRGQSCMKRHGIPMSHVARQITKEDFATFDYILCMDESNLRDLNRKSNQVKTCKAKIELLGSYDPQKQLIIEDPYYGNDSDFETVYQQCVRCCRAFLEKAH

[4] = biological target: T2, Ubiquitin-conjugating enzyme E2 N (Homo sapiens, UniProt P61088); type: functional;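 also: Dose-response confirmation in a TR-FRET assay detecting UBC13-driven polyubiquitin chain formation, inhibition measured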
T2 sequence (P61088 whole entry): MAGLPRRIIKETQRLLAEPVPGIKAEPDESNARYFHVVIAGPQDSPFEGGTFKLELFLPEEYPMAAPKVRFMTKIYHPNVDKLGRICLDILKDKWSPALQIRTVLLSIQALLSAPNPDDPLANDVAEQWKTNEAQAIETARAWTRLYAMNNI

[5] = biological target: T3, DNA repair and recombination protein RAD54-like (Homo sapiens, UniProt Q92698); experiment: RAD54 Holliday junction migration blockers – biochemical, fluorescence, cherry-picked samples, dose series, confirmation (AID 651657); type: functional
T3 sequence (Q92698 whole entry): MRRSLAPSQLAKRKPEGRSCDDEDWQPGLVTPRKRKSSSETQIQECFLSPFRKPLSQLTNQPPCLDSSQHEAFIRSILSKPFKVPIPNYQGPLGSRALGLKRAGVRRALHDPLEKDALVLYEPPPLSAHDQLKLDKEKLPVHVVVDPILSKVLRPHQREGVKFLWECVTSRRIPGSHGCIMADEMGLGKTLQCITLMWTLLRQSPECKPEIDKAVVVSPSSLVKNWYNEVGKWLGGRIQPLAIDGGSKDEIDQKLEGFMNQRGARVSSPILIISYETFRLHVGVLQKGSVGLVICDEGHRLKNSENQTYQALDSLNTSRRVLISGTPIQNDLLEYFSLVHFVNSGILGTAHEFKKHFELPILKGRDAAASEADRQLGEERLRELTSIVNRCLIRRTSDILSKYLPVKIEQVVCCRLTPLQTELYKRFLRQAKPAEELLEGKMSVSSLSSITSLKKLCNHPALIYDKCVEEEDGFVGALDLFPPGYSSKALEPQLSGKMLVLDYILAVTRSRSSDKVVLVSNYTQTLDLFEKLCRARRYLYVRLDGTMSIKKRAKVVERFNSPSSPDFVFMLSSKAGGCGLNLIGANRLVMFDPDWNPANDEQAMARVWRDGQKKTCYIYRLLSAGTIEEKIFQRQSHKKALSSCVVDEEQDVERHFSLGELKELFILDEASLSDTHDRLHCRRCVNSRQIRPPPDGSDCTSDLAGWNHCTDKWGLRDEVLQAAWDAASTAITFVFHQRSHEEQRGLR

[6] = biological target: Beta-galactosidase (Escherichia coli, UniProt Q8VNN2); experiment: PubChem AID 485352; type: functional
Chain of Beta-galactosidase (Q8VNN2 whole entry): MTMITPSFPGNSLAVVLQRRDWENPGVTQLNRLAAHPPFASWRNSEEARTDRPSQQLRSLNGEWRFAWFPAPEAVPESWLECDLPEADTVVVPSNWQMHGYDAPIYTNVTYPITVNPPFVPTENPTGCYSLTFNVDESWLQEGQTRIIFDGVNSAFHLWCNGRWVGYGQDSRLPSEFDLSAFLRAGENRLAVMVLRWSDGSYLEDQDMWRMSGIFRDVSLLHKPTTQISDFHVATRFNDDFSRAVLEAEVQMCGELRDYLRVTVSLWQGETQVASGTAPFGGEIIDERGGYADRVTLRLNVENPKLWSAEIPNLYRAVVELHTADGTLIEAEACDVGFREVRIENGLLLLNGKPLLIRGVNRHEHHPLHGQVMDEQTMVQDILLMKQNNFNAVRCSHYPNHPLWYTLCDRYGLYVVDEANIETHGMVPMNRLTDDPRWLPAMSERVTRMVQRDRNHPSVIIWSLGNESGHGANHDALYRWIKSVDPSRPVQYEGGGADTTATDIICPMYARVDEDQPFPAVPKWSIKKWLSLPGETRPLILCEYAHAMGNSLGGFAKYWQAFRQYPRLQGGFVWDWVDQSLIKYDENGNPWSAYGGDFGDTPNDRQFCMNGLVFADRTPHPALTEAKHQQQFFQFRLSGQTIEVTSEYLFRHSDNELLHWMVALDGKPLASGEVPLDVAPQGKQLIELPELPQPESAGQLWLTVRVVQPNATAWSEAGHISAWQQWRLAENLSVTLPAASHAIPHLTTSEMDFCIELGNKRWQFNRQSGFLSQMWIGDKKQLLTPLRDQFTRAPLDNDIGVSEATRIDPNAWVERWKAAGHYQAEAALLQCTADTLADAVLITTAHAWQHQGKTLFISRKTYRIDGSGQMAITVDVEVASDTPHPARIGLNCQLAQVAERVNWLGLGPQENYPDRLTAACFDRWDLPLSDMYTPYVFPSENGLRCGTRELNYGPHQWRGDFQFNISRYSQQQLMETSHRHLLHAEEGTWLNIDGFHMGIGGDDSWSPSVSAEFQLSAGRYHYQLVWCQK

[7] = biological target: T4, Type-1 angiotensin II receptor (Homo sapiens, UniProt P30556); experiment: antagonism of angiotensin II type 1 receptor – cell-based, uHTS hits, selectivity assay for APJ receptor antagonist project, dose response (AID 463214); type: functional;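 also: antagonist potency against angiotensin II stimulated AT1 response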
T4 sequence (P30556 whole entry): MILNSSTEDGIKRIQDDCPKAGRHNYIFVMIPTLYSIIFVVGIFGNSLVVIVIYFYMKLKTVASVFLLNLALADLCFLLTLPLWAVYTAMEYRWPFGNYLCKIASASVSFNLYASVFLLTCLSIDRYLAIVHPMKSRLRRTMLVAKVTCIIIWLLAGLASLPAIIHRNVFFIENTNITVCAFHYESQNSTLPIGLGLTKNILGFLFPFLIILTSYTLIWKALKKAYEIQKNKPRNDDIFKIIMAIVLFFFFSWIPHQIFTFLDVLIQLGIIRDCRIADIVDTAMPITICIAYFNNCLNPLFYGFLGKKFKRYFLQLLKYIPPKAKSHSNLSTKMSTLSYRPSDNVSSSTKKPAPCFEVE

[8] = biological target: T5, Adenosylmethionine-8-amino-7-oxononanoate aminotransferase (Mycobacterium tuberculosis, UniProt P9WQ81); experiment: Mycobacterium tuberculosis BioA enzyme inhibitor Measured in Biochemical System Using Plate Reader - 2163-02_Inhibitor_Dose_CherryPick_Activity.; type: functional, Mycobacterium tuberculosis UT205
T5 sequence (P9WQ81 whole entry): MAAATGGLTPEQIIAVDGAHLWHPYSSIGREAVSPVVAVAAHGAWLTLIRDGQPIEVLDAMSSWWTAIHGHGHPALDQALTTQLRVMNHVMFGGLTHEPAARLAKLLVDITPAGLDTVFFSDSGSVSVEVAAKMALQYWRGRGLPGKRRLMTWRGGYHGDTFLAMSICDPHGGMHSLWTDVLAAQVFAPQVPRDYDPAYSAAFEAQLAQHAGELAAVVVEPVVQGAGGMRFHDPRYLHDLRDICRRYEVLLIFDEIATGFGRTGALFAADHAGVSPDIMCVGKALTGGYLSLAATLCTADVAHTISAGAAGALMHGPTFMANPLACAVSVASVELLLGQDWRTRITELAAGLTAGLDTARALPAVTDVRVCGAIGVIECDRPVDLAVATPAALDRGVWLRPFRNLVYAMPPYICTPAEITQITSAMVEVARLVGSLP

[9] = Trypanosoma cruzi growth suppression in host cells – NIH3T3 host cells, beta-gal luminescence, confirmation (AID 2044); type: functional, cell-based;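 also: intracellular parasites grown in NIH/3T3 mouse fibroblasts as host cells; luminescent beta-galactosidase reporter signal from transgenic T. cruzi replicating inside host cells; inhibitors lower the luminescence signal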
[10] = NIH3T3 cell viability loss – ATP luminescence, mouse fibroblasts, counter-screen, dose response (AID 2010); type: functional, cell-based;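 also: cells exposed to compound for about 90 hours before reading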
[11] = biological target: DNA dC->dU-editing enzyme APOBEC-3G (Homo sapiens, UniProt Q9HC16); type: functional;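 also: Dose-response counterscreen measuring inhibition of APOBEC3G DNA deaminase activity, run while confirming APOBEC3A inhibitors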
Chain of DNA dC->dU-editing enzyme APOBEC-3G (Q9HC16 whole entry): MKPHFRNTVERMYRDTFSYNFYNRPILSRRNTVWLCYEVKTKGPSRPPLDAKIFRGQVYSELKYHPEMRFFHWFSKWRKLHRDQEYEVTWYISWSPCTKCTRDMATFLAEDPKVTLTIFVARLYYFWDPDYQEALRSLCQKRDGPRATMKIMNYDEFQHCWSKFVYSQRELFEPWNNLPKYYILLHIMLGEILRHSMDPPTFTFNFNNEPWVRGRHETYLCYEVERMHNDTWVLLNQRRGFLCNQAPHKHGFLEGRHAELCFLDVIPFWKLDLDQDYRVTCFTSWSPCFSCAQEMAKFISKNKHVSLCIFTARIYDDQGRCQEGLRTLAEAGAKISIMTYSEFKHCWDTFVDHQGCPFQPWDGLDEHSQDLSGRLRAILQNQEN

[12] = biological target: T6, Histone-lysine N-methyltransferase NSD2 (Homo sapiens, UniProt O96028); type: biochemical
T6 sequence (O96028 whole entry): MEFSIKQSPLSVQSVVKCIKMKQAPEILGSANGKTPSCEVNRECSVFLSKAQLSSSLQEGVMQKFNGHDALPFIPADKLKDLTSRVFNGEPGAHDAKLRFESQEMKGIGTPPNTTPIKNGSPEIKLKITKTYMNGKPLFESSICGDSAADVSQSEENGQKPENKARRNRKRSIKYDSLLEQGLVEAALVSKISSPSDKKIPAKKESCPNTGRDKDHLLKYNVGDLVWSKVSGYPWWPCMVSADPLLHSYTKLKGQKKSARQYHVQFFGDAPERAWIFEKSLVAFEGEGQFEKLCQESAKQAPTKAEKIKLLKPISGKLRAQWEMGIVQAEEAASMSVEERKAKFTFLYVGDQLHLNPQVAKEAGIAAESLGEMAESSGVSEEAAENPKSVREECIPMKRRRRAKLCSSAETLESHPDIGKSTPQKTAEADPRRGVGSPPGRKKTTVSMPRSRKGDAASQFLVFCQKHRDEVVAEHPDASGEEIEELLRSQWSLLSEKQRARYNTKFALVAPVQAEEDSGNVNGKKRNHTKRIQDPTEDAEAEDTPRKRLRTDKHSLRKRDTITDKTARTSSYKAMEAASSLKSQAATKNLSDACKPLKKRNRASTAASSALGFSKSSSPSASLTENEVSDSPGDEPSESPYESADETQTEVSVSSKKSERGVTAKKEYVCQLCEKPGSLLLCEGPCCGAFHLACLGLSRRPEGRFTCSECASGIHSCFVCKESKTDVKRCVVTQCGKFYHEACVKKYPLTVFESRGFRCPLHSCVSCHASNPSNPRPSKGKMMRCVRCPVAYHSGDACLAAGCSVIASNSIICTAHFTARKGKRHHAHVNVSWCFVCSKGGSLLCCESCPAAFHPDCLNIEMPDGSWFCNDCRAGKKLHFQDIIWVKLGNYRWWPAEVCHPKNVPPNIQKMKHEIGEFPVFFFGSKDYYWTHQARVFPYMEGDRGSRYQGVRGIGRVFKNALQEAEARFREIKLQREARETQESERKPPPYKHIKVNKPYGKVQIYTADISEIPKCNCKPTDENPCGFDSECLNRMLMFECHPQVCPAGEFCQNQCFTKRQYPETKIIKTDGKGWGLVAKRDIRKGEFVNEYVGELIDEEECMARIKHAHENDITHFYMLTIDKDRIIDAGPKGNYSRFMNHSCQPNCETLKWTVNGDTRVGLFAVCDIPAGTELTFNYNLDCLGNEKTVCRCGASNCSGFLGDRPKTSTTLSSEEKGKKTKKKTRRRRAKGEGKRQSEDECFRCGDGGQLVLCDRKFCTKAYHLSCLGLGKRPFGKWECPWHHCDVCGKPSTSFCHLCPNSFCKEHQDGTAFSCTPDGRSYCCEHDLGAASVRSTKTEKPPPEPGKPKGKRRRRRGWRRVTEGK

[13] = biological target: DNA dC->dU-editing enzyme APOBEC-3A (Homo sapiens, UniProt P31941); experiment: Dose Response confirmation of small molecule APOBEC3A DNA Deaminase Inhibitors via a fluorescence-based single-stranded DNA deaminase assay. [Related pubchem assays (depositor defined):AID493011, AID493024]; type: functional
Chain of DNA dC->dU-editing enzyme APOBEC-3A (P31941 whole entry): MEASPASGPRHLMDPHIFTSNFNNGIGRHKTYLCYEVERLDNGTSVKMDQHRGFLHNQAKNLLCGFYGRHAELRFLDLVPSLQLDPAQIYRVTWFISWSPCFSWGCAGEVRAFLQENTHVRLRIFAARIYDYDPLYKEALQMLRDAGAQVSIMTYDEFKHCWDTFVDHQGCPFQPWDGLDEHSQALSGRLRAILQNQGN

[14] = viability of uninfected HEp-2 cells – cell-based, HTS, cytotoxicity control for RSV inhibitor project, dose response (AID 2410); type: functional; details: human respiratory syncytial virus
[15] = biological target: T7, Corticotropin-releasing factor receptor 2/Corticotropin-releasing factor-binding protein (Homo sapiens, UniProt P24387+Q13324); experiment: activators of CRF receptor 2 with binding protein – uHTS hits, confirmation (AID 602473); type: functional; details: read-out: EC50_Mean
T7 sequence (Q13324 whole entry): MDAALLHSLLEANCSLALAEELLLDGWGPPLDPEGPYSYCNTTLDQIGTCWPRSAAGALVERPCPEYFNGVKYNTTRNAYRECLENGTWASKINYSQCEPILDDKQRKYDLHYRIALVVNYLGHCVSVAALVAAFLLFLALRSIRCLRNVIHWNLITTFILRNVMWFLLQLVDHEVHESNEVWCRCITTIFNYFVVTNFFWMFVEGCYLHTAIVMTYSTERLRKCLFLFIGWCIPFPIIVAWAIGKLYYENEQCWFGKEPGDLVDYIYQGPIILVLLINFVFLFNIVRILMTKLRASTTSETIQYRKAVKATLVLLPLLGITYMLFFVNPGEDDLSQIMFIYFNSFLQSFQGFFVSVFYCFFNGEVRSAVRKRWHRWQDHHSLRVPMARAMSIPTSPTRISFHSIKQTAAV
T7 sequence (P24387 whole entry): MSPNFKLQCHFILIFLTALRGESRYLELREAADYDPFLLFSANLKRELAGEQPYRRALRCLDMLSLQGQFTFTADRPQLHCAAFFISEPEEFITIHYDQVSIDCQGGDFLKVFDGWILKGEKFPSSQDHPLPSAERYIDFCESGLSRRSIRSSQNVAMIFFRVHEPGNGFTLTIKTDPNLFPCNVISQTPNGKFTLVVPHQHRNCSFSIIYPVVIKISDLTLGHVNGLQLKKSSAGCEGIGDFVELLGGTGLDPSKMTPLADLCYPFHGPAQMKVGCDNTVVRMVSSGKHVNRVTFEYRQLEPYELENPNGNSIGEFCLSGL

[16] = test system: HEK293; experiment: EBV LMP1 TES2 canonical NF-kB signalling blockers – cell-based, HEK293, luciferase, cherry-pick, dose response (AID 588343); type: functional; details: Homo sapiens
[17] = biological target: Genome polyprotein (dengue virus type 2, UniProt P29990); experiment: flavivirus cap methylation enzyme inhibition – biochemical, confirmation dose response, primary screen (AID 588689); type: functional
Chain of Genome polyprotein (P29990 2492-3391 limits assumed): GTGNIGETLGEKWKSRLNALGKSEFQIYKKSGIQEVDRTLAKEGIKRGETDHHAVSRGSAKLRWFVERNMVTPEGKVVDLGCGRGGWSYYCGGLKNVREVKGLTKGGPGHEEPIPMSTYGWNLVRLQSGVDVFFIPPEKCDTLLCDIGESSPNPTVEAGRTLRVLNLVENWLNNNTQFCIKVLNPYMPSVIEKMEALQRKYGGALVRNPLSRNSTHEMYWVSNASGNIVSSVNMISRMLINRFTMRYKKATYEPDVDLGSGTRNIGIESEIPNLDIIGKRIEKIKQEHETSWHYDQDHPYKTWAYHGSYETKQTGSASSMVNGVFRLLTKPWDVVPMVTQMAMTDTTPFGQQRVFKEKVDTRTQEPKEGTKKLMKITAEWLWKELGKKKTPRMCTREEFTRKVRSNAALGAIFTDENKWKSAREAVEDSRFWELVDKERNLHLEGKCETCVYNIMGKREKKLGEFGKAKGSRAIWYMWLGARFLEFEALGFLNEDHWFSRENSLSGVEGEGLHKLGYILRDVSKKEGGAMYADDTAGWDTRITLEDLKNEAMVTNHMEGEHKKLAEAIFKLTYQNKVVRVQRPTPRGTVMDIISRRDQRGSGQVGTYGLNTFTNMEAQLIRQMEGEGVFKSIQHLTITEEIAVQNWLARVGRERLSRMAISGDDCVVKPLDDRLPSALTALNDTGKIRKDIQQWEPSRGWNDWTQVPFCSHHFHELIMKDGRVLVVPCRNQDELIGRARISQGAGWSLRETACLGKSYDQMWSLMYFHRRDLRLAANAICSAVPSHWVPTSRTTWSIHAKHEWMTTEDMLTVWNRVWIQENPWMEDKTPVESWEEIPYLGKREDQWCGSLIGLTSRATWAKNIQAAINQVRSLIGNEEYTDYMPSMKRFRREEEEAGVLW

SMILES: COc1ccc(Cl)cc1N=C(S)NCc1cccnc1
- AC50 [1]: 29.7 µM (active)

SMILES: CC1CN(c2ccc(NS(=O)(=O)c3ccccc3)cc2C(=O)O)CC(C)O1 (configuration not stated)
- EC50 [2]: > 71.5 µM (inactive)

SMILES: Cn1c(CCN2CCN(c3ccccn3)CC2)nc2cc(NC(=O)COc3ccc([N+](=O)[O-])cc3)ccc21
- IC50 [3]: 8.47 µM (active)

SMILES: Cc1nc2ccccc2c2oc(C(=O)N3CCC(N4CCCCC4)CC3)cc12
- IC50 [4]: > 20 µM (inactive)
- AC50 [5]: 23.1 µM (active)

SMILES: COc1ccc(NC(=O)Nc2cccc3c2O[C@@H](CN(C)CC2CCCCC2)[C@@H](C)CN([C@H](C)CO)C3=O)cc1
- EC50 [6]: > 40 µM (inactive)
- IC50 [7]: > 40 µM (not active)

SMILES: CC1=C(C#N)C(c2cccnc2)C2=C(O)CC(c3ccc(Cl)cc3)CC2=N1 (configuration not stated)
- AC50 [8]: 0.67 µM (active)
- EC50 [9]: 2.26 µM (active)
- EC50 [10]: 21.8 µM (active)

SMILES: O=C(O)c1ccc(CSc2n[nH]c(-c3ccco3)n2)cc1
- IC50 [11]: 19.3 µM (active)
- AC50 [12]: > 20 µM (inactive)
- IC50 [13]: 9.95 µM (active)

SMILES: O=C(Nc1ccc(F)c(F)c1)c1ccc(-n2cncn2)c([N+](=O)[O-])c1
- AC50 [8]: 1.49 µM (active)
- CC50 [14]: 18.3 µM (active)

SMILES: CCOC(=O)N1CCC(N(CCN(C)C)C(S)=Nc2ccc(Oc3ccccc3)cc2)CC1
- AC50 [1]: 43.6 µM (active)

SMILES: O=C1OCC(CO)(CO)N=C1NNc1cc(Cl)ccc1Cl
- EC50 [6]: > 40 µM (inactive)
- IC50 [7]: 12.1 µM (active)

SMILES: C=C(C)CSc1nc(N)c2c3c(sc2n1)CCC3
- EC50 [15]: > 53 µM (inactive)
- AC50 [8]: 18.2 µM (active)

SMILES: COc1ccc(-c2nn(-c3ccccc3)cc2/C=N/NC(N)=S)cc1OC
- EC50 [2]: > 71.5 µM (inactive)

SMILES: CCn1c2ccccc2c2cc(/C=N/NC(=O)c3ccccc3)ccc21
- AC50 [16]: 3.99 µM (active)

SMILES: COc1ccccc1S(=O)(=O)N1CC[C@@H]2[C@H](CO)Nc3ccc(-c4cccc(C#N)c4)cc3[C@@H]21
- AC50 [8]: 18.5 µM (active)

SMILES: N#C/C(=C\c1ccc(C#N)cc1)C(=O)c1ccccc1
- IC50 [17]: > 100 µM (active)

SMILES: S=C(N/N=C/c1ccccc1)N1CCOCC1
- EC50 [6]: > 40 µM (inactive)
- IC50 [7]: 13.3 µM (active)

SMILES: Nc1nnnn1CC(=O)N/N=C/c1ccc(-c2cccc(Cl)c2)o1
- AC50 [1]: 21.6 µM (active)

— ChEMBL document CHEMBL1201862, “PubChem BioAssay data set” (2004)
